Some test systems named below: DU-145 prostate; HCT-15 colon; IGROV1 ovarian; K-562 leukemia; LOX IMVI melanoma; NCI-H23 lung; OVCAR-4 ovarian; SK-MEL-2 melanoma; SNB-19 CNS; SW-620 colon.
What all share (assay): growth of human tumour cells (NCI), 48 h

Where “and” joins values, the source holds several entries; their conditions need not be identical. Equal entries are not always repeated.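 These data come from cells grown in 96-well plates and exposed to compound for 48 hours at five concentrations. GI50 is the concentration that inhibits growth by half. The concentration for full growth arrest is given as TGI.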

In the case of `COc1ccc2c(c1)[nH]c(=O)c1c3cc(OC)ccc3cn21`, the GI50 in the test on DU-145 prostate was less than 0.019 µM; with HCT-15 colon, less than 0.01 µM; in the test on IGROV1 ovarian, 0.0157 µM; with K-562 leukemia, less than 0.01 µM; with LOX IMVI melanoma, 0.0269 µM; in the test with NCI-H23 lung, 0.046 µM. The GI50 with OVCAR-4 ovarian was 0.05 µM; with SK-MEL-2 melanoma it was 0.0538 µM; in the test with SNB-19 CNS, 0.0774 µM; in the test with SW-620 colon it was less than 0.01 µM. For the same compound, the TGI came to 0.256 µM with DU-145 prostate; 0.653 µM with HCT-15 colon; 1.18 µM in the test with IGROV1 ovarian; 0.0486 µM in the test on K-562 leukemia; 1.68 µM with LOX IMVI melanoma; 1.12 µM in the test with NCI-H23 lung. Also, the TGI in the test on OVCAR-4 ovarian was found to be 1.82 µM; in the test with SK-MEL-2 melanoma, 2.43 µM; with SNB-19 CNS, 4.32 µM; in the test with SW-620 colon it was 1.31 µM.

Turning to `NC1CCC(Nc2nc(NCc3ccc(-c4cccs4)nc3)c3ncn(C4CCCC4)c3n2)CC1` (centres undefined), the GI50 in the test with DU-145 prostate was 0.0933 µM; with HCT-15 colon, 0.342 µM; in the test on IGROV1 ovarian it was 0.0363 µM; with K-562 leukemia, 0.0397 µM; in the test with LOX IMVI melanoma it was 0.296 µM; in the test with NCI-H23 lung, 0.0383 µM. Also, the GI50 with OVCAR-4 ovarian was 0.0326 µM; in the test on SK-MEL-2 melanoma, 0.0908 µM; in the test on SNB-19 CNS, 0.0302 µM; with SW-620 colon, less than 0.0152 µM. The TGI is 4.42 µM with DU-145 prostate; 5.36 µM in the test on HCT-15 colon; 1.93 µM in the test on IGROV1 ovarian; 0.777 µM with K-562 leukemia; 3.48 µM in the test with LOX IMVI melanoma; 0.319 µM in the test with NCI-H23 lung. Moreover, the TGI in the test on OVCAR-4 ovarian was 1.06 µM; with SK-MEL-2 melanoma it was 0.288 µM; in the test with SNB-19 CNS, 3.75 µM; in the test with SW-620 colon, 2.03 µM.

On to `CC1=CC(=C(c2ccc(N)cc2)c2ccc(N)cc2)C=CC1=N`, for which the GI50 is 2.07 µM and 3.92 µM with DU-145 prostate; 4.61 µM and 14.5 µM in the test on HCT-15 colon; 4.06 µM and 5.72 µM in the test with IGROV1 ovarian; 0.369 µM in the test on K-562 leukemia; 1.38 µM and 3.71 µM in the test on LOX IMVI melanoma; 0.828 µM with NCI-H23 lung. Moreover, the GI50 in the test with OVCAR-4 ovarian is 2.51 µM and 5.01 µM; with SK-MEL-2 melanoma it was 2.32 µM and 2.71 µM; in the test on SNB-19 CNS, 0.494 µM; in the test on SW-620 colon it was 0.668 µM and 3.25 µM. For the same compound, the TGI was 15.2 µM and > 40.3 µM and 14.2 µM in the test on DU-145 prostate; 45.1 µM and > 74.7 µM and > 100 µM with HCT-15 colon; 35.9 µM and > 57.7 µM and 35.1 µM in the test with IGROV1 ovarian; 5.5 µM and 6.81 µM and 15 µM in the test with LOX IMVI melanoma; 4.97 µM and 16.2 µM and 16.4 µM with NCI-H23 lung; 14.3 µM and > 55.2 µM and 71.6 µM with OVCAR-4 ovarian. Moreover, the TGI in the test with SK-MEL-2 melanoma was 7.73 µM and 12.2 µM and 5.84 µM; in the test on SNB-19 CNS, 14.4 µM and 20.1 µM and 28.1 µM; in the test with SW-620 colon, 11.8 µM and 38.8 µM and 16 µM.

Take `Cc1ccc(C(SCC(N)C(=O)O)(c2ccc(C)cc2)c2ccc(C)cc2)cc1` (centres undefined): the GI50 with DU-145 prostate is 2.45 µM; with HCT-15 colon it was 4.54 µM; in the test with IGROV1 ovarian, 10.3 µM; in the test on K-562 leukemia it was 2.96 µM; in the test with LOX IMVI melanoma, 7.16 µM; with NCI-H23 lung, 4.87 µM. In addition, the GI50 in the test with OVCAR-4 ovarian was 11.3 µM; in the test on SK-MEL-2 melanoma, 2.72 µM; in the test on SNB-19 CNS, 4.97 µM; with SW-620 colon, 1.64 µM. The TGI was 5.59 µM in the test on DU-145 prostate; 27.9 µM with HCT-15 colon; 29.5 µM in the test on IGROV1 ovarian; 12.3 µM in the test with K-562 leukemia; 20.2 µM with LOX IMVI melanoma; greater than 43.2 µM in the test with NCI-H23 lung. The TGI was greater than 48.3 µM with OVCAR-4 ovarian, 20.5 µM in the test with SK-MEL-2 melanoma, 30.2 µM in the test on SNB-19 CNS and 15.8 µM in the test on SW-620 colon.

On to `CN(Cc1cc(Br)cc(Br)c1O)Cc1cc(Br)cc(Br)c1O`, for which the GI50 with DU-145 prostate is 5.48 µM; in the test with HCT-15 colon, 0.558 µM; with IGROV1 ovarian, 1.56 µM; in the test with K-562 leukemia, 0.603 µM; in the test on LOX IMVI melanoma, 1.14 µM; in the test with NCI-H23 lung it was 3.28 µM. In addition, the GI50 is 1.79 µM in the test on OVCAR-4 ovarian, 2.87 µM in the test on SK-MEL-2 melanoma, 4.86 µM with SNB-19 CNS and 2.33 µM in the test on SW-620 colon. Further, the TGI in the test on DU-145 prostate came out at 22.2 µM; in the test on HCT-15 colon, 16.9 µM; in the test on IGROV1 ovarian, 18.1 µM; with K-562 leukemia, 20 µM; in the test with LOX IMVI melanoma it was 17.4 µM; with NCI-H23 lung, 22.3 µM. In addition, the TGI is 18.9 µM with OVCAR-4 ovarian, 11.8 µM in the test with SK-MEL-2 melanoma, 36 µM in the test with SNB-19 CNS and 16.9 µM in the test on SW-620 colon.

In the case of `COC(=O)[C@]12CC[C@@H](C)[C@H](C)[C@@H]1C1=CC[C@@H]3[C@@]4(C)C(C=O)=C[C@@](C)(COC(C)=O)C4=CC[C@@]3(C)[C@]1(C)CC2`, the GI50 with DU-145 prostate is 5.24 µM; in the test with HCT-15 colon, 3.38 µM; in the test with IGROV1 ovarian, 5.51 µM; with K-562 leukemia it was 4.1 µM; in the test on LOX IMVI melanoma it was 3.3 µM; in the test on NCI-H23 lung, 4.53 µM. Further, the GI50 with OVCAR-4 ovarian was 4.06 µM; with SK-MEL-2 melanoma, 4.71 µM; in the test with SNB-19 CNS it was 5.25 µM; with SW-620 colon, 4.15 µM. The TGI in the test on DU-145 prostate was 19.4 µM; with HCT-15 colon it was 12.1 µM; in the test with IGROV1 ovarian it was 22.7 µM; in the test with K-562 leukemia, 15.3 µM; with LOX IMVI melanoma, 12.7 µM; with NCI-H23 lung, 19.3 µM. Moreover, the TGI with OVCAR-4 ovarian came to 18.3 µM; with SK-MEL-2 melanoma, 16.1 µM; with SNB-19 CNS, 25.6 µM; in the test with SW-620 colon it was 16.2 µM.

Take `O=[N+]([O-])c1ccc(Sc2ncnc3nc[nH]c23)c2nonc12`: the GI50 in the test on DU-145 prostate is 5.16 µM; in the test with HCT-15 colon, 10.5 µM; in the test on IGROV1 ovarian it was 2.32 µM; in the test on K-562 leukemia it was 0.436 µM; in the test on LOX IMVI melanoma, 1.04 µM; with NCI-H23 lung it was 10.3 µM. In addition, the GI50 in the test with OVCAR-4 ovarian was 0.811 µM; with SK-MEL-2 melanoma, 4.36 µM; with SNB-19 CNS, 20.8 µM; in the test with SW-620 colon it was 1.63 µM. The TGI in the test with DU-145 prostate is greater than 100 µM; in the test with HCT-15 colon, 36.1 µM; with IGROV1 ovarian, 7.64 µM; with K-562 leukemia it was 2.72 µM; in the test with LOX IMVI melanoma, 16 µM; with NCI-H23 lung it was 23.6 µM. The TGI is 16.9 µM in the test on OVCAR-4 ovarian, 15.9 µM in the test on SK-MEL-2 melanoma, 41.9 µM with SNB-19 CNS and 3.44 µM in the test on SW-620 colon.

Values taken from PubChem BioAssay (NCI).
